Source: patent publication US20040235049A1, “Device for presentation of polypeptides able to be used as a chip for miniaturised detection of molecules” (priority 2001, published 2004)
Read-outs that look alike come from different tables or passages of the source.

Experiments:
[1] = test system: antibodies directed against NS3 (HCV) in sera; format: binding, human
[2] = test system: Rhodamine Conjugated affinity Purified anti-Biotin [goat]
Procedure: (§1) Each concentration is spotted 6 times per slide.
(§2) The slides are incubated for 2 hours at 37° C. under a moist atmosphere. A series of 4 successive washings is carried out with PBS solution to which 0.05% Tween 20 had been added. The slides are then rinsed with a deionised water wash-bottle then with 95° ethanol for 1 minute, then dried for 15 minutes in the ambient atmosphere.
(§3) The results expressed in the following table correspond to the mean fluorescence and to the standard deviation of the 6 spots of each concentration obtained after incubation of the rhodamine-conjugated streptavidin and the rhodamine- conjugated anti-biotin antibody respectively.

[3] = biological target: Streptavidin Tetramethyl Rhodamine conjugate (Streptomyces avidinii, UniProt P22629)
Streptavidin Tetramethyl Rhodamine conjugate, sequence (P22629 37-163 limits assumed): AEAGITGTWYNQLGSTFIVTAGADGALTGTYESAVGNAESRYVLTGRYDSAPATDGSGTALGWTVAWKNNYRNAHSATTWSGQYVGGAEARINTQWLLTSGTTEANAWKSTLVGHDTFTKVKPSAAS
Procedure: as §1, §2, §3

[4] = biological target: rhodamine-conjugated streptavidin (Streptomyces avidinii, UniProt P22629); conditions: streptavidin 10^−3 mg/ml
rhodamine-conjugated streptavidin, sequence (P22629 37-163 limits assumed): as above
Procedure: as §1
The slides are then incubated in the presence of 150 μl of a 10^−3 mg/ml solution of rhodamine-conjugated streptavidin (solution of streptavidin Tetramethyl Rhodamine conjugate (Molecular Probes, Oregon, USA)) diluted in an 0.01 M PBS buffer, pH 7.2 in 15 the presence of different concentrations of biotin (10^−3 M, 10^−4 M, 10^−5 M, 10^−7 M and 0 M under a glass cover slip (24×60 mm). The slides are incubated for 2 hours at 37° C. under a moist atmosphere. A series of 4 successive washings is carried out with PBS solution to which 0.05% Tween 20 had been added. The slides are then rinsed, dried and analysed as stated above.

[5] = Sérum 1, NS3 positive, positivity threshold 2205
[6] = Sérum 2, NS3 positive, positivity threshold 3565
[7] = Sérum 3, NS3 positive, positivity threshold 4374
[8] = Sérum 4, NS3 positive, positivity threshold 2774
[9] = Sérum HCV-, positivity threshold 1271

## GLGINAVAYY [Peptide 16]
[1]; [5]
  Fluorescence: 4201
[1]; [6]
  Fluorescence: 5577
[1]; [7]
  Fluorescence: 1861
[1]; [8]
  Fluorescence: 5602
[1]; [9]
  Fluorescence: 931

## AIPLEAIKGG [Peptide 4]
[1]; [5]
  Fluorescence: 2899
[1]; [6]
  Fluorescence: 2988
[1]; [7]
  Fluorescence: 2497
[1]; [8]
  Fluorescence: 5598
[1]; [9]
  Fluorescence: 1011

## LEAIKGGRHL [Peptide 7]
[1]; [5]
  Fluorescence: 1845
[1]; [6]
  Fluorescence: 1307
[1]; [7]
  Fluorescence: 1084
[1]; [8]
  Fluorescence: 3077
[1]; [9]
  Fluorescence: 574

## GLDVSVIPTS [Peptide 17]
[1]; [5]
  Fluorescence: 7976
[1]; [6]
  Fluorescence: 6423
[1]; [7]
  Fluorescence: 2619
[1]; [8]
  Fluorescence: 7338
[1]; [9]
  Fluorescence: 754

## KAIPLEAIKG [Peptide 3]
[1]; [5]
  Fluorescence: 2803
[1]; [6]
  Fluorescence: 3161
[1]; [7]
  Fluorescence: 1694
[1]; [8]
  Fluorescence: 5065
[1]; [9]
  Fluorescence: 924

## EAIKGGRHLL [Peptide 8]
[1]; [5]
  Fluorescence: 2343
[1]; [6]
  Fluorescence: 1220
[1]; [7]
  Fluorescence: 1159
[1]; [8]
  Fluorescence: 2587
[1]; [9]
  Fluorescence: 525

## ELAAKLSGLG [Peptide 9]
[1]; [5]
  Fluorescence: 1582
[1]; [6]
  Fluorescence: 1142
[1]; [7]
  Fluorescence: 1671
[1]; [8]
  Fluorescence: 2418
[1]; [9]
  Fluorescence: 508

## GKAIPLEAIK [Peptide 2]
[1]; [5]
  Fluorescence: 3590
[1]; [6]
  Fluorescence: 8023
[1]; [7]
  Fluorescence: 3495
[1]; [8]
  Fluorescence: 7405
[1]; [9]
  Fluorescence: 933

## PTSGDYVVVA [Peptide 24]
[1]; [5]
  Fluorescence: 1835
[1]; [6]
  Fluorescence: 1436
[1]; [7]
  Fluorescence: 1387
[1]; [8]
  Fluorescence: 3532
[1]; [9]
  Fluorescence: 573

## H-Lys(biotin-G2)AYLAG-NH(CH2)3O(CH2)2O(CH2)2O(CH2)3NHCOCHO [pep-Biotine]
[2]; pep-Biotine 10^−3 mg/ml, anti-biotin antibody 10^−1 mg/ml
  mean fluorescence (6 spots): 15350
[2]; pep-Biotine 10^−3 mg/ml, anti-biotin antibody 10^−2 mg/ml
  mean fluorescence (6 spots): 13113
[2]; pep-Biotine 10^−3 mg/ml, anti-biotin antibody 10^−3 mg/ml
  mean fluorescence (6 spots): 6828
[2]; pep-Biotine 10^−3 mg/ml, anti-biotin antibody 10^−4 mg/ml
  mean fluorescence (6 spots): 2271
[2]; pep-Biotine 10^−4 mg/ml, anti-biotin antibody 10^−1 mg/ml
  mean fluorescence (6 spots): 14721
[2]; pep-Biotine 10^−4 mg/ml, anti-biotin antibody 10^−2 mg/ml
  mean fluorescence (6 spots): 9121
[2]; pep-Biotine 10^−4 mg/ml, anti-biotin antibody 10^−3 mg/ml
  mean fluorescence (6 spots): 4981
[2]; pep-Biotine 10^−4 mg/ml, anti-biotin antibody 10^−4 mg/ml
  mean fluorescence (6 spots): 1535
[2]; pep-Biotine 10^−5 mg/ml, anti-biotin antibody 10^−1 mg/ml
  mean fluorescence (6 spots): 10932
[2]; pep-Biotine 10^−5 mg/ml, anti-biotin antibody 10^−2 mg/ml
  mean fluorescence (6 spots): 6849
[2]; pep-Biotine 10^−5 mg/ml, anti-biotin antibody 10^−3 mg/ml
  mean fluorescence (6 spots): 3377
[2]; pep-Biotine 10^−5 mg/ml, anti-biotin antibody 10^−4 mg/ml
  mean fluorescence (6 spots): 1249
[2]; pep-Biotine 10^−6 mg/ml, anti-biotin antibody 10^−1 mg/ml
  mean fluorescence (6 spots): 6606
[2]; pep-Biotine 10^−6 mg/ml, anti-biotin antibody 10^−2 mg/ml
  mean fluorescence (6 spots): 2947
[2]; pep-Biotine 10^−6 mg/ml, anti-biotin antibody 10^−3 mg/ml
  mean fluorescence (6 spots): 791
[2]; pep-Biotine 10^−6 mg/ml, anti-biotin antibody 10^−4 mg/ml
  mean fluorescence (6 spots): 385
[3]; pep-Biotine 10^−3 mg/ml, streptavidin 10^−1 mg/ml
  mean fluorescence (6 spots): 34660
[3]; pep-Biotine 10^−3 mg/ml, streptavidin 10^−3 mg/ml
  mean fluorescence (6 spots): 29836
[3]; pep-Biotine 10^−3 mg/ml, streptavidin 10^−4 mg/ml
  mean fluorescence (6 spots): 13816
[3]; pep-Biotine 10^−4 mg/ml, streptavidin 10^−1 mg/ml
  mean fluorescence (6 spots): 31781
[3]; pep-Biotine 10^−4 mg/ml, streptavidin 10^−3 mg/ml
  mean fluorescence (6 spots): 24666
[3]; pep-Biotine 10^−4 mg/ml, streptavidin 10^−4 mg/ml
  mean fluorescence (6 spots): 7931
[3]; pep-Biotine 10^−5 mg/ml, streptavidin 10^−1 mg/ml
  mean fluorescence (6 spots): 26524
[3]; pep-Biotine 10^−5 mg/ml, streptavidin 10^−3 mg/ml
  mean fluorescence (6 spots): 20902
[3]; pep-Biotine 10^−5 mg/ml, streptavidin 10^−4 mg/ml
  mean fluorescence (6 spots): 7673
[3]; pep-Biotine 10^−6 mg/ml, streptavidin 10^−1 mg/ml
  mean fluorescence (6 spots): 18500
[3]; pep-Biotine 10^−6 mg/ml, streptavidin 10^−3 mg/ml
  mean fluorescence (6 spots): 10737
[3]; pep-Biotine 10^−6 mg/ml, streptavidin 10^−4 mg/ml
  mean fluorescence (6 spots): 2124
[4]; pep-Biotine 10^−3 mg/ml, biotin in competition 0 M
  mean fluorescence (6 spots): 29836
[4]; pep-Biotine 10^−3 mg/ml, biotin in competition 10^−3 M
  mean fluorescence (6 spots): 376
[4]; pep-Biotine 10^−3 mg/ml, biotin in competition 10^−4 M
  mean fluorescence (6 spots): 2237
[4]; pep-Biotine 10^−3 mg/ml, biotin in competition 10^−6 M
  mean fluorescence (6 spots): 16683
[4]; pep-Biotine 10^−3 mg/ml, biotin in competition 10^−7 M
  mean fluorescence (6 spots): 17132
[4]; pep-Biotine 10^−4 mg/ml, biotin in competition 0 M
  mean fluorescence (6 spots): 24666
[4]; pep-Biotine 10^−4 mg/ml, biotin in competition 10^−3 M
  mean fluorescence (6 spots): 207
[4]; pep-Biotine 10^−4 mg/ml, biotin in competition 10^−4 M
  mean fluorescence (6 spots): 961
[4]; pep-Biotine 10^−4 mg/ml, biotin in competition 10^−6 M
  mean fluorescence (6 spots): 9414
[4]; pep-Biotine 10^−4 mg/ml, biotin in competition 10^−7 M
  mean fluorescence (6 spots): 12178
[4]; pep-Biotine 10^−5 mg/ml, biotin in competition 0 M
  mean fluorescence (6 spots): 20902
[4]; pep-Biotine 10^−5 mg/ml, biotin in competition 10^−3 M
  mean fluorescence (6 spots): 107
[4]; pep-Biotine 10^−5 mg/ml, biotin in competition 10^−4 M
  mean fluorescence (6 spots): 322
[4]; pep-Biotine 10^−5 mg/ml, biotin in competition 10^−6 M
  mean fluorescence (6 spots): 3588
[4]; pep-Biotine 10^−5 mg/ml, biotin in competition 10^−7 M
  mean fluorescence (6 spots): 6129
[4]; pep-Biotine 10^−6 mg/ml, biotin in competition 0 M
  mean fluorescence (6 spots): 10737
[4]; pep-Biotine 10^−6 mg/ml, biotin in competition 10^−3 M
  mean fluorescence (6 spots): 78
[4]; pep-Biotine 10^−6 mg/ml, biotin in competition 10^−4 M
  mean fluorescence (6 spots): 189
[4]; pep-Biotine 10^−6 mg/ml, biotin in competition 10^−6 M
  mean fluorescence (6 spots): 2350
[4]; pep-Biotine 10^−6 mg/ml, biotin in competition 10^−7 M
  mean fluorescence (6 spots): 2611

## AAKLSGLGIN [Peptide 11]
[1]; [5]
  Fluorescence: 2156
[1]; [6]
  Fluorescence: 1557
[1]; [7]
  Fluorescence: 1458
[1]; [8]
  Fluorescence: 5283
[1]; [9]
  Fluorescence: 628

## YGKAIPLEAI [Peptide 1]
[1]; [5]
  Fluorescence: 3735
[1]; [6]
  Fluorescence: 3143
[1]; [7]
  Fluorescence: 2608
[1]; [8]
  Fluorescence: 6357
[1]; [9]
  Fluorescence: 917

## PLEAIKGGRH [Peptide 6]
[1]; [5]
  Fluorescence: 2789
[1]; [6]
  Fluorescence: 3136
[1]; [7]
  Fluorescence: 2821
[1]; [8]
  Fluorescence: 5932
[1]; [9]
  Fluorescence: 957

## SVIPTSGDVV [Peptide 21]
[1]; [5]
  Fluorescence: 3553
[1]; [6]
  Fluorescence: 8321
[1]; [7]
  Fluorescence: 2244
[1]; [8]
  Fluorescence: 6853
[1]; [9]
  Fluorescence: 913

## LDVSVIPTSG [Peptide 18]
[1]; [5]
  Fluorescence: 29857
[1]; [6]
  Fluorescence: 4113
[1]; [7]
  Fluorescence: 4824
[1]; [8]
  Fluorescence: 6209
[1]; [9]
  Fluorescence: 667

## IPLEAIKGGR [Peptide 5]
[1]; [5]
  Fluorescence: 2260
[1]; [6]
  Fluorescence: 2339
[1]; [7]
  Fluorescence: 1549
[1]; [8]
  Fluorescence: 4739
[1]; [9]
  Fluorescence: 945

## LAAKLSGLGI [Peptide 10]
[1]; [5]
  Fluorescence: 3166
[1]; [6]
  Fluorescence: 2418
[1]; [7]
  Fluorescence: 1684
[1]; [8]
  Fluorescence: 9152
[1]; [9]
  Fluorescence: 551

## DVSVIPTSGD [Peptide 19]
[1]; [5]
  Fluorescence: 9088
[1]; [6]
  Fluorescence: 4111
[1]; [7]
  Fluorescence: 2337
[1]; [8]
  Fluorescence: 4939
[1]; [9]
  Fluorescence: 567

## SGLGINAVAY [Peptide 15]
[1]; [5]
  Fluorescence: 17944
[1]; [6]
  Fluorescence: 10603
[1]; [7]
  Fluorescence: 4786
[1]; [8]
  Fluorescence: 8262
[1]; [9]
  Fluorescence: 791

## IPTSGDVVVV [Peptide 23]
[1]; [5]
  Fluorescence: 2983
[1]; [6]
  Fluorescence: 3394
[1]; [7]
  Fluorescence: 1818
[1]; [8]
  Fluorescence: 4505
[1]; [9]
  Fluorescence: 904

## VSVIPTSGDV [Peptide 20]
[1]; [5]
  Fluorescence: 7909
[1]; [6]
  Fluorescence: 4711
[1]; [7]
  Fluorescence: 2873
[1]; [8]
  Fluorescence: 11266
[1]; [9]
  Fluorescence: 718

## VIPTSGDVVV [Peptide 22]
[1]; [5]
  Fluorescence: 1882
[1]; [6]
  Fluorescence: 1466
[1]; [7]
  Fluorescence: 1385
[1]; [8]
  Fluorescence: 2963
[1]; [9]
  Fluorescence: 648
